ChEMBL document CHEMBL5034035, “Discovery of an Oxycyclohexyl Acid Lysophosphatidic Acid Receptor 1 (LPA1) Antagonist BMS-986278 for the Treatment of Pulmonary Fibrotic Diseases” (J Med Chem, 2021)

Experiments:
[1] = target: Cytochrome P450 3A4 (Homo sapiens, UniProt P08684); assay: Inhibition of CYP3A4 (unknown origin); format: ADME
[2] = Half life in rat liver microsomes at 10 uM measured after 120 mins; format: ADME, Microsome
[3] = target: T1, Cytochrome P450 2B6 (Homo sapiens, UniProt P20813); assay: Inhibition of CYP2B6 (unknown origin); format: ADME
T1 sequence (P20813 whole entry): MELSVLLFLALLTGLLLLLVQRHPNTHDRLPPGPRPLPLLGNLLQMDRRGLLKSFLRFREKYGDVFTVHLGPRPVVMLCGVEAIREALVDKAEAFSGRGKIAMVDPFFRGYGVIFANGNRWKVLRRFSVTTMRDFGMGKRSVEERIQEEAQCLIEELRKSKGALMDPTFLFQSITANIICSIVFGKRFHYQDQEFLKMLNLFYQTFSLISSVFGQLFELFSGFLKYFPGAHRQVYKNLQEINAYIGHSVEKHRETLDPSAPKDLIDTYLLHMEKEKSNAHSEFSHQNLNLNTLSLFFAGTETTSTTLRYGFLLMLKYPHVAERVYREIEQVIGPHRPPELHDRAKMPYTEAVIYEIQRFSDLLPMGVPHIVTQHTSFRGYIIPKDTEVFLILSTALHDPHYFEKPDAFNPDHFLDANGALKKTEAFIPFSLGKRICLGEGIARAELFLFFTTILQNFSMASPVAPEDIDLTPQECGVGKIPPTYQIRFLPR

[4] = Protein binding in Sprague-Dawley rat plasma assessed as free fraction at 3 mg/kg, po or 1 mg/kg, iv measured up to 24 hrs by LC-MS/MS analysis; format: ADME, organism-based
[5] = target: T2, ATP-binding cassette sub-family C member 4 (Homo sapiens, UniProt O15439); assay: Inhibition of MRP4 (unknown origin)
T2 sequence (O15439 whole entry): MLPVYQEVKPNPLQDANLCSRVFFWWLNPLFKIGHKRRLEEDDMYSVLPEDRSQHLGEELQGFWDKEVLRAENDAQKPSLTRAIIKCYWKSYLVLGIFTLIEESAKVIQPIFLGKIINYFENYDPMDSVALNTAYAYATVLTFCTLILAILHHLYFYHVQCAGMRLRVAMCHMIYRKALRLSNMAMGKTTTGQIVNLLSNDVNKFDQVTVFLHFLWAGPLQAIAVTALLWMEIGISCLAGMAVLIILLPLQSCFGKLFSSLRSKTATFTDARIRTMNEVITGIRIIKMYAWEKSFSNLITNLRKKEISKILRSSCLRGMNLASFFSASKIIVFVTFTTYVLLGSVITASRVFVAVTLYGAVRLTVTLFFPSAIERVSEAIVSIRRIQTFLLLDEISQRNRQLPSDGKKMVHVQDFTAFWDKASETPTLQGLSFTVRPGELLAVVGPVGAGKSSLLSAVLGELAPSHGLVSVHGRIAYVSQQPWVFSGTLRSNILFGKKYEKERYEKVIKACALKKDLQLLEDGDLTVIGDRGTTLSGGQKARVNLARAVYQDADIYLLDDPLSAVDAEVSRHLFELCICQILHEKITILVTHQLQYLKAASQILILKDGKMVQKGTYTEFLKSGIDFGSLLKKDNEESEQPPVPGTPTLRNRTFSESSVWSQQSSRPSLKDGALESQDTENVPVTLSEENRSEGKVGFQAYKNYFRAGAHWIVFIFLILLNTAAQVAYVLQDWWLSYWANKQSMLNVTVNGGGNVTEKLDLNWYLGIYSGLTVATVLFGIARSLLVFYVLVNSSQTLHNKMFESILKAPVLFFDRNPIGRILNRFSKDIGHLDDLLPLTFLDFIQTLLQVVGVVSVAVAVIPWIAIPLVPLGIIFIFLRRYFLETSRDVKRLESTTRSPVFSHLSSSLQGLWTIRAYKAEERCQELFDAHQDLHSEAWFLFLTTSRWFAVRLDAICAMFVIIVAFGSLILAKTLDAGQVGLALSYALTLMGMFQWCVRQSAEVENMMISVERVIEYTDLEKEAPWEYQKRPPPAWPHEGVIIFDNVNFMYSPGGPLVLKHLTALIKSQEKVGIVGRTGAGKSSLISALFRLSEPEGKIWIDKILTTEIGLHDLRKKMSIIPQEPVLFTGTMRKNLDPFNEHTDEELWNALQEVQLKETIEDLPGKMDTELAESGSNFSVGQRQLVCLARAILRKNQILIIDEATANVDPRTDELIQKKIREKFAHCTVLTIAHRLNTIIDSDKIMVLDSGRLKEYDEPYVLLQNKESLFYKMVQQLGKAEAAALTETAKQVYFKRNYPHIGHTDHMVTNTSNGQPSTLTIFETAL

[6] = target: T3, Cytochrome P450 1A2 (Homo sapiens, UniProt P05177); assay: Inhibition of CYP1A2 (unknown origin); format: ADME
T3 sequence (P05177 whole entry): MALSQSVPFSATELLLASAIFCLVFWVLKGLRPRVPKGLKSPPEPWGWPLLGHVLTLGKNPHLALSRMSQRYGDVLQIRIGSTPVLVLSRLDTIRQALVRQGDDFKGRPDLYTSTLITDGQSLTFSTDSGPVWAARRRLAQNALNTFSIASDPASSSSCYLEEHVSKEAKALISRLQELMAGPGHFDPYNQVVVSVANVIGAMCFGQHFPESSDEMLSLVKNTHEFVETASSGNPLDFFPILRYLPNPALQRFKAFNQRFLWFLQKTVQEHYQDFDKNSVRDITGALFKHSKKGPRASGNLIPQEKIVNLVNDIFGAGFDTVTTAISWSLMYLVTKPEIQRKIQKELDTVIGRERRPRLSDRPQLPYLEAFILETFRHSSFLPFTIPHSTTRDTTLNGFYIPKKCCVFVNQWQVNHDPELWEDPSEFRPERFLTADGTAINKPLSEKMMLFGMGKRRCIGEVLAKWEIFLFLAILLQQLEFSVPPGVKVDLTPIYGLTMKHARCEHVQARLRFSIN

[7] = Half life in human liver microsomes at 10 uM measured after 120 mins; format: ADME, Microsome
[8] = target: Bile salt export pump (Homo sapiens, UniProt O95342); assay: Inhibition of BSEP (unknown origin); format: ADME
Bile salt export pump, sequence (O95342 whole entry): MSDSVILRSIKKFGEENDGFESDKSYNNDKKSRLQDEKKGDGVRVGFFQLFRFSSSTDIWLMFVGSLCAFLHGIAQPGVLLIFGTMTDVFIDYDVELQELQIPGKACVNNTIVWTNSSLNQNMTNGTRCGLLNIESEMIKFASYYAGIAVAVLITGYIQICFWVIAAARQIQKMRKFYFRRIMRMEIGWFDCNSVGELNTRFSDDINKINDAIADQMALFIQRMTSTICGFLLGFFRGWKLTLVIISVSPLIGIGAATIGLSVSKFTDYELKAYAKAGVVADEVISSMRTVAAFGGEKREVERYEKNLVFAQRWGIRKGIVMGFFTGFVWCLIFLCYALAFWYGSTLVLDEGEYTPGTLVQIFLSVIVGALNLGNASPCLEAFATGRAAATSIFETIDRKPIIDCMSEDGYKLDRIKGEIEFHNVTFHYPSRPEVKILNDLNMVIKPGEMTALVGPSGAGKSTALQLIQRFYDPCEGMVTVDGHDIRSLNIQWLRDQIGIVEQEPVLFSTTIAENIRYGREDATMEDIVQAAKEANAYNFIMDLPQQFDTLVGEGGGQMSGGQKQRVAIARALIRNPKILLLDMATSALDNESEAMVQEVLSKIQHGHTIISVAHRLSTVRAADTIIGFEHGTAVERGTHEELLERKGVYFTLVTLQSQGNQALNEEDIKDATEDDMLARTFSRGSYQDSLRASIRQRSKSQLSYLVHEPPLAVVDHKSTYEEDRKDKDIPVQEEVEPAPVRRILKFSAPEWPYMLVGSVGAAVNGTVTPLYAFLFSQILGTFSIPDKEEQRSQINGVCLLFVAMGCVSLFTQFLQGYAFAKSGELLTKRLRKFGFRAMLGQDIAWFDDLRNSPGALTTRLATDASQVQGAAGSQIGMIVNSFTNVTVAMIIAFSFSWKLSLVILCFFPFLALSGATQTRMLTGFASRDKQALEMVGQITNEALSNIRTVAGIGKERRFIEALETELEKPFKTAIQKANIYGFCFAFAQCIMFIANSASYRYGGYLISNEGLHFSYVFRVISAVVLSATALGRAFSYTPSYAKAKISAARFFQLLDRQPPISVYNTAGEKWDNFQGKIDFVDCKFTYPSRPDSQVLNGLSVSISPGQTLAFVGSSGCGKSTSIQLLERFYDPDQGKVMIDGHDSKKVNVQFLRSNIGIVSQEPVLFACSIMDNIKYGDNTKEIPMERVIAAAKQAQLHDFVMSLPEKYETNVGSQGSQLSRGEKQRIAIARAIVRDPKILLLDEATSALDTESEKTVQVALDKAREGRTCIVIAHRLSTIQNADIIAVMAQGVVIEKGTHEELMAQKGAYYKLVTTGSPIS

Cytochrome P450 3A4, sequence (P08684 whole entry): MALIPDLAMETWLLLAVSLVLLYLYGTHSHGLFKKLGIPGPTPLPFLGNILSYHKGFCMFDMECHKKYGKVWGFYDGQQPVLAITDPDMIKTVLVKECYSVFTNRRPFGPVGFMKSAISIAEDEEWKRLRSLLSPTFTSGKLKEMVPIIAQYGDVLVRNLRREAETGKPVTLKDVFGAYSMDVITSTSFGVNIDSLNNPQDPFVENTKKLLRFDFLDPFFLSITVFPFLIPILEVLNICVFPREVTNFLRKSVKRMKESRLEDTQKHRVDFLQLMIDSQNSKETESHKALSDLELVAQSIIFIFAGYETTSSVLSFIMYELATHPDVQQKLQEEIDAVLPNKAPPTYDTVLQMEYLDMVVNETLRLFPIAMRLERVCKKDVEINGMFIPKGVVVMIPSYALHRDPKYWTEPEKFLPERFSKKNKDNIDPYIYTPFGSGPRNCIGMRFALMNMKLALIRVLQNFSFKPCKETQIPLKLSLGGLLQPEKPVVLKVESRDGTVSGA

| IC50 [1] | half-life at 10 µM [2] | IC50 [3] | fraction unbound at 24 h [4] | IC50 [5] | IC50 [6] | half-life at 10 µM [7] | SMILES | IC50 [8] |
| --- | --- | --- | --- | --- | --- | --- | --- | --- |
| > 40 µM | > 2 h | > 40 µM | 0.126 | 47 µM | > 40 µM | > 2 h | CCCN(C)C(=O)OCc1c(-c2ccc(O[C@H]3CCC[C@H](C(=O)O)C3)c(C)n2)nnn1C [ADMILPARANT] | > 100 µM |
| > 40 µM | > 2 h | > 40 µM | 0.053 | 16 µM | > 40 µM | > 2 h | Cc1nc(-c2nnn(C)c2COC(=O)N(C)CC2CCC2)ccc1O[C@H]1CCC[C@H](C(=O)O)C1 | 19.6 µM |

| SMILES | IC50 [1] | half-life at 10 µM [2] | IC50 [3] | fraction unbound at 24 h [4] | IC50 [5] | IC50 [6] | half-life at 10 µM [7] | IC50 [8] |
| --- | --- | --- | --- | --- | --- | --- | --- | --- |
| Cc1noc(-c2ccc(-c3ccc(C4(C(=O)O)CC4)cc3)cc2)c1NC(=O)O[C@H](C)c1ccccc1 [BMS-986020] | > 50 µM | 1.27 h | > 50 µM | 0.002 | 6.2 µM | > 50 µM | 1.38 h | 4.8 µM |
